Measured values: patent EP1283044A2, “Injectable ready-to-use solutions containing an antitumor anthracycline glycoside” (Pharmacia Italia S.p.A., priority 1986, dated 1988)
Where a name gives a salt, the structure may show the parent alone.

How the values were obtained:
[1] = Shelf-life (t90%) forecast, Arrhenius approach, doxorubicin.HCl 2 mg/ml sterile water solution pH 3.0; assay type: physicochemical; conditions: for K x 10^3: 2 mg/ml sterile water solution pH 3.0, calculated from Arrhenius equation; for t90%: 2 mg/ml sterile water solution pH 3.0, calculated shelf-life; for Kobs x 10^3: 2 mg/ml sterile water solution pH 3.0, observed
Description: The solution was filtered through a 0.22 µm microporous membrane under nitrogen pressure. 5.0 ml aliquots were stored at: • (a) 55°C for 21 days, • (b) 45°C and 35°C for 28 days, and • (c) 27°C for 90 days. in glass vials of glass type I, 8ml top capacity vial, Teflon-faced chlorobutyl rubber bung, aluminium seal. At predetermined times the vials were analysed for doxorubicin.HCl assay and pH.
The Arrhenius equation for the degradation process was calculated from the Kobs obtained from the different temperatures taken in account for the testing (Table 8). Applying the equation, the rate constants for the pseudo-first order reactions at 4°C, 8°C, 15°C and 27°C were calculated, together with the expected shelf-life (t90%)at these temperatures.

[2] = Shelf-life (t90%) forecast, Arrhenius approach, doxorubicin.HCl 2 mg/ml pH 3.0 in 0.9% sodium chloride; assay type: physicochemical; conditions: 2 mg/ml pH 3.0 solution in 0.9% NaCl; for K x 10^3: calculated from Arrhenius equation; for t90%: calculated shelf-life; for Kobs x 10^3: observed
Description: The solution was filtered through a 0.22 µm microporous membrane under nitrogen pressure. 5.0 ml aliquots were stored at: • (a) 60°C for 4 days, • (b) 55°C for 11 days, • (c) 45°C for 21 days, and • (d) 35°C for 28 days in glass vials of glass type I, 8ml top capacity vial, Teflon-faced chlorobutyl rubber bung, aluminium seal. At predetermined times the vials were analysed for doxorubicin.HCl assay and pH.
The Arrhenius equation for the degradation process was calculated from the Kobs obtained from the different temperatures taken in account for the testing (Table 28). Applying the equation, the rate constants for the pseudo-first order reactions at 4°C, 8°C, 15°C and 27°C were calculated, together with the expected shelf-life (t90%) at these temperatures.

[3] = Shelf-life (t90%) forecast, Arrhenius approach, doxorubicin.HCl 2 mg/ml pH 3.0 in 5% dextrose; assay type: physicochemical; conditions: 2 mg/ml pH 3.0 solution in 5% dextrose; for t90%: calculated shelf-life; for Kobs x 10^3: observed
Description: The solution was filtered through a 0.22 µm microporous membrane under nitrogen pressure. 5.0 ml aliquots were stored at: • (a) 60°C for 8 days, • (b) 55°C for 28 days, • (c) 45°C for 28 days, and • (d) 35°C for 28 days in glass vials of glass type I, 8ml top capacity vial, Teflon-faced chlorobutyl rubber bung, aluminium seal.
The Arrhenius equation for the degradation process was calculated from the Kobs obtained from the different temperatures taken in account for the testing (Table 30). Applying the equation, the rate constants for the pseudo-first order reactions at 4°C, 8°C, 15°C and 27°C were calculated, together with the expected shelf-life (t90%) at these temperatures.

[4] = Long term stability of doxorubicin.HCl 2 mg/ml solution in 0.9% sodium chloride at pH 3.7; conditions: batch TF/23256, 0.9% sodium chloride
[5] = pH-stability profile at 55°C of epirubicin.HCl 2 mg/ml solutions in Water for Injection, 0.9% saline or 5% dextrose: HPLC assay, pH, Kobs; assay type: physicochemical
Description: Each solution was filtered through a 0.22 µm microporous membrane under nitrogen pressure. 5.0 ml of each solution were stored at 55°C in glass vials of glass type I, 8ml top capacity vial, Teflon (Trade Mark)-faced chlorobutyl rubber bung, aluminium seal.
The doxorubicin.HCl assays are the mean of three independent determinations performed by the US Pharmacopoeia (USP high performance liquid chromatography (HPLC) method (USP XXI)).
Solutions of epirubicin were prepared in the same fashion as the corresponding doxorubicin solutions hereinbefore. They were then tested for stability in the same way. The results are presented in Tables 32 to 61 below and illustrated in Figures 4 to 6.

Structure (SMILES): COc1cccc2c1C(=O)c1c(O)c3c(c(O)c1C2=O)C[C@@](O)(C(=O)CO)C[C@@H]3O[C@H]1C[C@H](N)[C@H](O)[C@H](C)O1 [Doxorubicin·HCl, doxorubicin]
- K x 10^3 ([1]; 4°C): 0.019 1/days
- K x 10^3 ([1]; 8°C): 0.038 1/days
- K x 10^3 ([1]; 15°C): 0.130 1/days
- K x 10^3 ([1]; 27°C): 0.918 1/days
- t90% ([1]; 4°C): 5,652 days
- t90% ([1]; 8°C): 2,745 days
- t90% ([1]; 15°C): 810 days
- t90% ([1]; 27°C): 115 days
- Kobs x 10^3 ([1]; 27°C): 0.850 1/days
- Kobs x 10^3 ([1]; 35°C): 3.506 1/days
- Kobs x 10^3 ([1]; 45°C): 12.790 1/days
- Kobs x 10^3 ([1]; 55°C): 49.340 1/days
- K x 10^3 ([2]; 4°C): 0.017 1/days
- K x 10^3 ([2]; 8°C): 0.037 1/days
- K x 10^3 ([2]; 15°C): 0.137 1/days
- K x 10^3 ([2]; 27°C): 1.112 1/days
- t90% ([2]; 4°C): 6,166 days
- t90% ([2]; 8°C): 2,838 days
- t90% ([2]; 15°C): 768 days
- t90% ([2]; 27°C): 94 days
- Kobs x 10^3 ([2]; 35°C): 3.89 1/days
- Kobs x 10^3 ([2]; 45°C): 21.61 1/days
- Kobs x 10^3 ([2]; 55°C): 75.90 1/days
- Kobs x 10^3 ([2]; 60°C): 164.9 1/days
- t90% ([3]; 4°C): 3,218 days
- t90% ([3]; 8°C): 1,628 days
- t90% ([3]; 15°C): 516 days
- t90% ([3]; 27°C): 82 days
- Kobs x 10^3 ([3]; 35°C): 4.190 1/days
- Kobs x 10^3 ([3]; 45°C): 14.55 1/days
- Kobs x 10^3 ([3]; 55°C): 58.11 1/days
- Kobs x 10^3 ([3]; 60°C): 102.6 1/days
- % stability ([4]; pH 3.7, 8°C, 0 months): 100.0%
- Doxorubicin.HCl assay ([4]; pH 3.7, 8°C, 0 months): 2.064 mg/mL
- pH ([4]; pH 3.7, 8°C, 0 months): 3.7
- % stability ([4]; pH 3.7, 8°C, 1 month): 99.3%
- Doxorubicin.HCl assay ([4]; pH 3.7, 8°C, 1 month): 2.054 mg/mL
- pH ([4]; pH 3.7, 8°C, 1 month): 3.7
- % stability ([4]; pH 3.7, 8°C, 3 months): 100.0%
- Doxorubicin.HCl assay ([4]; pH 3.7, 8°C, 3 months): 2.063 mg/mL
- pH ([4]; pH 3.7, 8°C, 3 months): 3.6
- % stability ([4]; pH 3.7, 15°C, 0 months): 100.0%
- Doxorubicin.HCl assay ([4]; pH 3.7, 15°C, 0 months): 2.064 mg/mL
- pH ([4]; pH 3.7, 15°C, 0 months): 3.7
- % stability ([4]; pH 3.7, 15°C, 1 month): 100.5%
- Doxorubicin.HCl assay ([4]; pH 3.7, 15°C, 1 month): 2.073 mg/mL
- pH ([4]; pH 3.7, 15°C, 1 month): 3.7
- % stability ([4]; pH 3.7, 15°C, 3 months): 98.4%
- Doxorubicin.HCl assay ([4]; pH 3.7, 15°C, 3 months): 2.029 mg/mL
- pH ([4]; pH 3.7, 15°C, 3 months): 3.6
- % stability ([4]; pH 3.7, 27°C, 0 months): 100.0%
- Doxorubicin.HCl assay ([4]; pH 3.7, 27°C, 0 months): 2.064 mg/mL
- pH ([4]; pH 3.7, 27°C, 0 months): 3.7
- % stability ([4]; pH 3.7, 27°C, 1 month): 91.5%
- Doxorubicin.HCl assay ([4]; pH 3.7, 27°C, 1 month): 1.888 mg/mL
- pH ([4]; pH 3.7, 27°C, 1 month): 3.6
- % stability ([4]; pH 3.7, 27°C, 3 months): 74.9%
- pH ([4]; pH 3.7, 27°C, 3 months): 3.3

Structure (SMILES): COc1cccc2c1C(=O)c1c(O)c3c(c(O)c1C2=O)C[C@@](O)(C(=O)CO)C[C@@H]3O[C@H]1C[C@H](N)[C@@H](O)[C@H](C)O1 [epirubicin.HCl, 4'-epi-doxorubicin]
- Kobs x 10^3 ([5]; 2 mg/ml in 0.9% Sodium Chloride Injection, Acetate (I = 0.05) pH 4.0, 55°C): 124.8 1/days
- Kobs x 10^3 ([5]; 2 mg/ml in 0.9% Sodium Chloride Injection, Acetate (I= 0.05) pH 5.0, 55°C): 318.1 1/days
- Kobs x 10^3 ([5]; 2 mg/ml in 0.9% Sodium Chloride Injection, Formate (I = 0.05) pH 3.5, 55°C): 124.5 1/days
- Kobs x 10^3 ([5]; 2 mg/ml in 0.9% Sodium Chloride Injection, Glycine-HCl (I = 0.05) pH 2.0, 55°C): 168.9 1/days
- Kobs x 10^3 ([5]; 2 mg/ml in 0.9% Sodium Chloride Injection, Glycine-HCl (I = 0.05) pH 2.5, 55°C): 97.3 1/days
- Kobs x 10^3 ([5]; 2 mg/ml in 0.9% Sodium Chloride Injection, Glycine-HCl (I = 0.05) pH 3.0, 55°C): 84.8 1/days
- Kobs x 10^3 ([5]; 2 mg/ml in 0.9% Sodium Chloride Injection, HCl-KCl (I = 0.05) pH 1.5, 55°C): 343.2 1/days
- Kobs x 10^3 ([5]; 2 mg/ml in 5% Dextrose solution, Acetate (I = 0.05) pH 4.0, 55°C): 150.6 1/days
- Kobs x 10^3 ([5]; 2 mg/ml in 5% Dextrose solution, Acetate (I = 0.05) pH 5.0, 55°C): 225.7 1/days
- Kobs x 10^3 ([5]; 2 mg/ml in 5% Dextrose solution, Formate (I = 0.05) pH 3.5, 55°C): 89.1 1/days
- Kobs x 10^3 ([5]; 2 mg/ml in 5% Dextrose solution, Glycine-HCl (I = 0.05) pH 2.0, 55°C): 106.9 1/days
- Kobs x 10^3 ([5]; 2 mg/ml in 5% Dextrose solution, Glycine-HCl (I = 0.05) pH 2.5, 55°C): 81.1 1/days
- Kobs x 10^3 ([5]; 2 mg/ml in 5% Dextrose solution, Glycine-HCl (I = 0.05) pH 3.0, 55°C): 70.9 1/days
- Kobs x 10^3 ([5]; 2 mg/ml in 5% Dextrose solution, HCl-KCl (I = 0.05) pH 1.5, 55°C): 288.1 1/days
- Kobs x 10^3 ([5]; 2 mg/ml in Water for Injection, Acetate (I = 0.05) pH 4.0, 55°C): 376.7 1/days
- Kobs x 10^3 ([5]; 2 mg/ml in Water for Injection, Acetate (I = 0.05) pH 5.0, 55°C): 430.4 1/days
- Kobs x 10^3 ([5]; 2 mg/ml in Water for Injection, Fermate (I = 0.05) pH 3.5, 55°C): 125.4 1/days
- Kobs x 10^3 ([5]; 2 mg/ml in Water for Injection, Glycine-HCl (I = 0.05) pH 2.0, 55°C): 79.0 1/days
- Kobs x 10^3 ([5]; 2 mg/ml in Water for Injection, Glycine-HCl (I = 0.05) pH 2.5, 55°C): 55.1 1/days
- Kobs x 10^3 ([5]; 2 mg/ml in Water for Injection, Glycine-HCl (I = 0.05) pH 3.0, 55°C): 66.8 1/days
